Peptide text beside a SMILES is read from it.
Assays:
Type in all cases: physicochemical
[1] = Heat stability: residual rate after heat sterilization in an autoclave; details: aqueous 10 mM solution, pH 6.5, autoclave 120° C.
Protocol: Each of aqueous 10 mM solutions of β-alanyl-L-glutamine, L-alanyl-L-glutamine (control) and L-glutamine (control) adjusted at pH 6.5 with sodium hydroxide was heated in an autoclave at 120° C. for a period of 20 minutes or 120 minutes. The residual rate of each of the compounds after heating was determined.

[2] = Solubility: maximum amount dissolved in 1 liter of water; details: 25° C.
Protocol: Each of β-alanyl-L-glutamine, L-alanyl-L-glutamine (control) and L-glutamine (control) was dissolved into 1 liter of water (25° C.). Each of their maximum amounts dissolved in the water was determined.

[3] = Heat stability: residual rate after heat sterilization in an autoclave; details: aqueous 10 mM solution, pH 6.5, autoclave 120° C., 20 minutes

For `C[C@H](N)C(=O)N[C@@H](CCC(N)=O)C(=O)O` [L-Alanyl-L-glutamine, L-alanyl-L-glutamine] (H-Ala-Gln-OH), the “Residual Rate after Heat Sterilization 20 min.” value [1] was 98%, the “Residual Rate after Heat Sterilization 20 min.” value ([1]; listed as L-alanyl-L-glutamine) was “partly decomposed” and the “Residual Rate after Heat Sterilization 120 min.” value [1] was 91%. The “Amount Dissolved in 1 liter of Water” value [2] was 599 g.

For `NC(=O)CC[C@H](N)C(=O)O` [L-Glutamine, L-glutamine], the “Residual Rate after Heat Sterilization 20 min.” value [1] was 9%, the “Residual Rate after Heat Sterilization 120 min.” value [1] was 0% and the “Residual Rate after Heat Sterilization 120 min.” value ([1]; listed as L-glutamine) was “decomposed completely”. The “Amount Dissolved in 1 liter of Water” value [2] was 43 g and the “Share decomposed after heating” value [3] was “about 90%”.

With `NCCC(=O)N[C@@H](CCC(N)=O)C(=O)O` [β-Alanyl-L-glutamine, β-alanyl-L-glutamine] the “Residual Rate after Heat Sterilization 20 min.” value [1] was 100%, the “Residual Rate after Heat Sterilization 20 min.” value ([1]; listed as β-alanyl-L-glutamine) was “remained entirely without being decomposed” and the “Residual Rate after Heat Sterilization 120 min.” value [1] was 99%. The “Amount Dissolved in 1 liter of Water” value [2] was 952 g and the “Amount Dissolved in 1 liter of Water” value ([2]; listed as β-alanyl-L-glutamine) was “highest solubility”.

— US5432160A, “Nutrient composition” (Kyowa Hakko Kohyo Co., Ltd., priority 1993, dated 1995)
